How the values were obtained:
C. trachomatis L2 [1] = assay: Host cell pretreatment assay; format: cell-based, Chlamydia trachomatis; settings: 2, 8 and 32 μM, 37°C, 1 h (also 4 h) prior to infection
Procedure: Cells seeded in 48-well plate were incubated with 2, 8, or 32 μM individual compound at 37°C for indicated times. After twice washing with SPG to remove residual compound, cells were infected with EBs at an MOI of 0.2. At 36 hpi, the inclusion count in each well was determined by immunofluorescence staining as above.
Chlamydia trachomatis has a unique EB/RB biphasic life cycle, which offers the infection steps and the intracellular proliferation period for therapeutic intervention. To explore whether the compounds affected the chlamydial infection steps, the HeLa cells or EBs were pretreated with compound prior to infection, and then the influence on EB entry efficiency was analyzed by counting inclusion numbers. Due to the relative easier for culture and shorter developmental cycle, C. trachomatis L2 is commonly represented as a laboratory model for C. trachomatis in cell culture research and is picked for our subsequent mechanism study.
Figure 3 Host cells were not involved in the compounds' antichlamydial activity. HeLa cells were incubated with 2, 8, or 32 μM compound 1 (a) or 2 (b) at 37°C for 1 or 4 h. After washes, cells were infected with EBs. At 36 hpi, the inclusion was counted as described in “Materials and Methods.” Data are presented as mean ± SD of three independent assays.

Uninfected HeLa cells = assay: Host cell cytotoxicity (morphology, nuclear integrity, cell count); format: cell-based; settings: 48 h, Evans blue, DAPI, cell counting
Procedure: Uninfected HeLa cells were cultured with indicated concentration of individual compound or 0.5% DMSO. Forty-eight hours later, cells were fixed with methanol and stained with Evans blue for morphology or DAPI for nuclear integrity. Otherwise, at 48 h later, cells were detached and enumerated by a hemacytometer.  Figure 2 Lack of cytotoxicity of compounds 1 and 2 on HeLa cells. Uninfected HeLa cells were cultured with medium containing various concentrations of individual compound or 0.5% DMSO for 48 h. (a) The cellular morphology was stained with Evans blue, and cell nucleus was stained with DAPI. (b) The cells were enumerated by a hemacytometer. Data are presented as mean ± SD of three independent assays.

C. trachomatis L2 [2] = assay: Later treatment assay; format: cell-based, Chlamydia trachomatis; settings: 2, 8 or 32 μM, progeny EBs at 36 hpi, compared with 0 hpi sample
Procedure: HeLa cells seeded in 48-well plate were infected with C. trachomatis L2 at an MOI of 0.2 and were treated with 2, 8, or 32 μM of compound at 0, 2, 12, and 24 hpi. At 36 hpi, cells were collected, and the production of infectious progeny EBs was determined as described above. Percent inhibition was calculated based on progeny EB count in compound-treated samples relative to DMSO-treated negative control.  Figure 5 Later treatment assay. (a) HeLa cells infected with C. trachomatis L2 were treated with 2, 8, or 32 μM individual compound at 0, 2, 12, or 24 hpi. The production of progeny EBs was determined at 36 hpi. (b–d) Percent inhibition of progeny EBs was calculated based on data in compound-treated samples relative to DMSO-treated control. Data are presented as mean ± SD of three independent assays. ∗∗p < 0.01, compared with each 0 hpi positive control sample by Student's t-tests.

Row | Compound | Formation of chlamydial inclusions after pretreatment of HeLa cells (C. trachomatis L2 [1]) | Cytotoxic activity on host cells (morphology, nuclear integrity, cell proliferation) (Uninfected HeLa cells) | Antichlamydial activity when chemical was added at 24 hpi (C. trachomatis L2 [2]) | Antichlamydial activity when chemical was added before 12 hpi (C. trachomatis L2 [2])
1 | Clc1ccc(N2C(c3ccccc3)CC3C(c4ccccc4)N(c4ccccc4)OC32)cc1 (centres unmarked) [Compound 2] | did not reduce | No substantial cytotoxic activity | dramatically dropped | maintained
2 | c1ccc(C2C3CC(c4ccccc4)N(c4ccccc4)C3ON2c2ccccc2)cc1 (centres unmarked) [Compound 1] | did not reduce | No substantial cytotoxic activity | dramatically dropped | maintained
